# Values of other authors in US7875460B2, “Method for determining the effectiveness of stabilized chlorine dioxide in a mouth rinse” (priority 2007, dated 2011).
# Experiments:
# [1] = test system: bacteria; settings: exposures as short as 10 seconds
# [2] = in vivo
# [3] = test system: Sprague-Dawley rats
smiles,measurement,setting,value
[O][Cl+][O-] [chlorine dioxide],reduction in bacteria,[1],dramatic reduction in bacteria
same,decrease in VSCs in expired mouth air,[2],remarkable decrease in VSCs
same,"effects on haematology, blood biochemistry, or organ weights","[3]; 0, 2, 4, 6, 12 mg/kg/day (male) and 0, 2, 5, 8, 15 mg/kg/day (female) in drinking-water for 90 days",no toxicologically significant effects
same,target tissue identified: nasal cavity findings,[3]; drinking-water for 90 days,"increased incidence of goblet cell hyperplasia, squamous metaplasia, and inflammatory responses"
same,deaths,[3]; exposures as high as 11.5 mg/kg/day (male) and 14.9 mg/kg/day (female),no deaths were reported
